The text below walks through data of patent publication US20050143358A1, “Methods for reducing body fat using vitamin D compounds” (Deltanoid Pharmaceuticals, Inc., priority 2003, published 2005).

One assay has as its system ovariectomized rats. Nature of the assay: Whole body DEXA body composition in ovariectomized rats (Example 3). It counts as in vivo, rat. The text has this:
FIG. 1 is a flow-chart illustrating the experimental design of the investigations described herein. Female Sprague Dawley rats (Taconic, German Town, N.Y.) were placed on a purified diet of 0.5% calcium and 0.4% phosphorus (AIN-76A Rodent Diet, prepared by Research Diet, Inc., New Brunswick, N.J.). At 4 months of age, a first subset (20) of the animals was sham-operated while a second subset (90) was ovariectomized. The time of ovariectomy is designated as week 0. Eight weeks after this surgery, the ovariectomized animals were divided into experimental groups receiving the following dosing regimen: 2MD, at doses of 0.5, 1.0, 2.5, 5.0 and 10 ng/kg/day; calcitriol (the active form of vitamin D), at doses of 50 ng/kg/day and 200 ng/kg/day; and human parathyroid hormone hPTH, at doses of 20 μg/kg/day. The 2MD and the calcitriol were administered orally in 100 μl of vegetable oil delivered to the back of the tongue by a throat tube, while the hPTH was administered sub-cutaneously.
Serum calcium was measured by tail bleeding at week 14 ([…]), week 21 and week 24. At week 24, the animals were sacrificed and the following endpoint measurements were taken: whole body DEXA; bone markers: osteocalcin and deoxypyridinoline (DPD); peripheral quantitative computed tomography (pQCT) of the distal femoral metaphysis (DFM) and femoral shaft (FS); micro-computerized tomography (micro-CT) of the DFM; serum parathyroid hormone (PTH); histomorphometry of the proximal tibial metaphysis (PTM), lumbar vertebra 3 (LV3) and trabecular separation (TS); and bone strength of the DFM, FS and lumbar vertebra 5 (LV5).
At week 0, the animals underwent surgical treatment as explained above. The animals were allowed to recuperate for 8 weeks before the dosing regimen began (0 wk). At 24 weeks post-surgery the animals were sacrificed and endpoint measurements were taken as explained above.

The subject of a further assay is human leukemia cells. The settings on record: biological testing of 19-nor-analogs; cited from earlier work.
For assay [1] the following is noted: cited from earlier work.
For assay [2] the following is noted: studies described in Shevde et al.; cited from earlier work.
The test system of another assay is osteoblast cell line. The note with it: Yamamoto et al., J. Biol. Chem. 278, 31756 (2003); cited from earlier work.
[3] abbreviates: 200 ng/kg/day oral, DEXA, FIG. 4.
[4] abbreviates: 10 ng/kg/day oral, DEXA, FIG. 3.
Setting [5] is: 10 ng/kg/day oral, DEXA, FIG. 4.
[6] abbreviates: doses of at least 2.5 ng/kg/day, DEXA, FIG. 4.

“Also recorded” adds a separate entry of the source.

On to `C=C1/C(=C\C=C2/CCC[C@]3(C)[C@@H]([C@H](C)CCCC(C)(C)O)CC[C@@H]23)C[C@@H](O)C[C@@H]1O` [calcitriol, 1α,25-dihydroxyvitamin D3, reference compound], for which the “percent body fat compared to ovariectomized controls” value in the assay with ovariectomized rats (50 ng/kg/day oral, DEXA, FIG. 3) was “at most only a minor difference”. Further, the “percent body fat compared to ovariectomized controls” value in the assay with ovariectomized rats (200 ng/kg/day oral, DEXA, FIG. 3) is “significant decrease”. Moreover, in the assay with ovariectomized rats (setting [3]), the “body fat compared to ovariectomized controls” value was “less body fat” and the “body fat compared to sham-operated controls” value is “noticeable increase in body fat”. Besides, in the assay with ovariectomized rats (calcitriol group, DEXA, FIG. 4), the “body weight compared to ovariectomized controls” value is given as “only a tendency for reduction” and the “overall body weight compared to sham-controls” value is given as “increase in overall body weight”. Besides, the “reduction of total body weight” value with ovariectomized rats (even at much higher doses than 2MD) is given as “did not act to significantly reduce”.
`C[C@H](CCCC(C)(C)O)[C@H]1CC[C@H]2/C(=C/C=C3C[C@@H](O)C[C@H](O)C3)CCC[C@]12C` [1α,25-dihydroxy-19-nor-vitamin D3, reference compound]: the “potency in inducing cellular differentiation” value in the assay on human leukemia cells is on record as “high potency”. The calcium mobilizing activity result in assay [1] (biological testing of 19-nor-analogs) is “very low”.
In the case of `C=C1[C@H](O)CC(=C/C=C2\CCC[C@]3(C)[C@@H]([C@@H](C)CCCC(C)(C)O)CC[C@@H]23)C[C@H]1O` [2MD, 2-methylene-19-nor-(20S)-1α,25 dihydroxyvitamin D3], the “intestinal calcium transport activity” value in assay [2] is “low”. In addition, the “activity relative to calcitriol in inducing genes in the osteoblast cell line” value in the assay on osteoblast cell line was “at least 100 fold”. Besides, in the assay on ovariectomized rats (0.5 ng/kg/day oral, DEXA, FIG. 3), the “percent body fat compared to ovariectomized/vehicle controls” value is on record as “little to no effect; also recorded: noticeable trend for a reduced increase”. Moreover, the “percent body fat compared to ovariectomized/vehicle controls” value with ovariectomized rats (1 ng/kg/day oral, DEXA, FIG. 3) is on record as “little to no effect”. In addition, the “percent body fat compared to ovariectomized controls” value in the assay with ovariectomized rats (5 ng/kg/day oral, DEXA, FIG. 3) is on record as “significant decrease”. Further, in the assay with ovariectomized rats (5 ng/kg/day oral, DEXA, FIG. 4), the “body fat component compared to ovariectomized-vehicle controls” value is given as “significantly less body fat”, the “bone mineral content (BMC) component compared to sham-operated controls” value was “an increase”, the “lean component compared to sham-operated controls” value is given as “an increase” and the “total body weight compared to sham/vehicle controls” value is reported as “significantly increased”. Besides, the “reduction in body fat compared with calcitriol at 200 ng/kg/day” value with ovariectomized rats (5 ng/kg/day oral, FIG. 3) is “as great an effect”. Moreover, in the assay with ovariectomized rats (setting [4]), the “percent body fat compared to ovariectomized controls” value was “significant decrease” and the “percent body fat compared to sham-operated controls” value is listed as “noticeably less percent body fat”. In addition, in the assay with ovariectomized rats (setting [5]), the “body fat component compared to ovariectomized controls” value was “significantly lower”, the “body fat component compared to sham-operated controls” value was “less body fat”, the “body weight compared to ovariectomized controls” value is “significantly reduced” and the “lean body weight plus bone mineral content relative to sham operated animals” value was “increased”. Further, in the assay with ovariectomized rats (setting [5]), the “lean body weight relative to sham operated animals” value is “increased” and the “total body weight compared to sham-control” value is reported as “virtually the same”. Also, the “decrease in the fat component compared with the group receiving 200 ng/kg/day calcitriol” value in the assay on ovariectomized rats (10 ng/kg/day oral, FIG. 3) is “greater decrease”. The “increase in lean body component and bone mineral component compared with calcitriol at 50 ng/kg/day” value in the assay with ovariectomized rats (DEXA, FIG. 4) is “more positive effect”. This molecule also registered a body fat content in the assay with ovariectomized rats (OVX rats, 2MD 10 ng/kg/day oral, DEXA at week 24 (sham-operated group 25%)) of 20%. Moreover, in the assay with ovariectomized rats (setting [6]), the “bone mineral content (BMC) relative to sham-operated or ovariectomized controls” value was “noticeable increase” and the “lean body weight relative to sham-operated or ovariectomized controls” value was “noticeable increase”. The “fat component relative to OVX-controls” value with ovariectomized rats (starting at the 1 ng/kg/day dose, DEXA, FIG. 4) is recorded as “trend for a decrease”. For the same molecule, in assay [1] (studies described in Shevde et al.), the “bone calcium mobilization activity” value was “high”.

B1: hPTH: human parathyroid hormone hPTH, administered sub-cutaneously at 20 μg/kg/day (peptide, UniProt P01270 32-115, looked up)
Parathyroid hormone: SVSEIQLMHNLGKHLNSMERVEWLRKKLQDVHNFVALGAPLAPRDAGSQRPRKKEDNVLVESHEKSLGEADKADVNVLTKAKSQ
modifications: Parathyroid hormone
notes: human parathyroid hormone hPTH, administered sub-cutaneously at 20 μg/kg/day
With B1, the “percent body fat compared to ovariectomized controls” value in the assay on ovariectomized rats (20 μg/kg/day sub-cutaneously, DEXA, FIG. 3) is “at most only a minor difference”.
